Experimental data: patent publication US8470805B2, “Processes for preparing piperazinium salts of KMUP and use thereof” (Kaohsiung Medical University, priority 2009, dated 2013)

What was measured:
C57BL/6J mice [1] = assay: The lipid-lowering effect in C57BL/6J mice (high-fat diet); assay type: in vivo; details: HFD, after 21 days
Protocol: (§1) 8-week C57BL/6J mice are divided into standard diet (STD) group and the high-fat diet (HFD) group. In the HFD group, the KMUP-1 HCl salt (1, 2.5 and 5 mg/kg), the simvastatin (5 mg/kg), the KMUP-1-Nicotinic acid complex (1 and 5 mg/kg), the KMUP-1-Simvastatinic acid complex (1 and 5 mg/kg), KMUP-1-Gemfibrozil complex (2.5 mg/kg), KMUP-1-Fibric acid complex (2.5 mg/kg), KMUP-1-γ-polyglutamic acid complex (2.5 mg/kg) and KMUP-1-Citric acid complex (2.5 mg/kg) are administered orally. After 21 days, the amounts (mg/dl) of the triglyceride (TG), the total cholesterol (tot.-C), the high density lipoprotein cholesterol (HDL-C), the low density lipoprotein cholesterol (LDL-C) and the serum glucose of six mice for each group are measured as shown in Tables 2 and 3.

C57BL/6J mice [2] = assay: The amount of the serum glucose and insulin in C57BL/6J mice (high-fat diet); assay type: in vivo; details: 1 mg/kg orally, HFD, after 21 days
Protocol: as §1

[3] = test system: STZ-induced diabetic rats; assay: Serum glucose and body weight in streptozosin (STZ)-induced diabetic rats; assay type: in vivo; details: after 21 days
Protocol: 2. The effect of KMUP-1 on decreasing the amount of the serum glucose in streptozosin (STZ)-induced diabetic rats
60 mg/kg of streptozosin is injected intravenously for inducing the STZ-induced rats, and the KMUP-1 HCl salt (0.5, 1.5, 2.5 and 5 mg/kg) and KMUP-1-Simvastatinic acid (5 mg/kg) are administered orally. After 21 days, the amount of the serum glucose (mg/dl), the amount of the serum insulin (mg/dl), the body weight (g) and the change of the body weight are measured.

[4] = test system: STZ-induced diabetic rats; assay: Change of insulin and fasting blood glucose after administration, STZ-induced diabetic rats; assay type: in vivo
Protocol: Nateglinide, repaglinide or the placebo is administered on day 1 before one hour of the breakfast, and the KMUP-1/KMUP-1-Nateglinide or KMUP-1-Repaglinide are orally administered at 1, 2, 3, 4, 5 and 6 hrs respectively. The amount of the serum glucose (mg/dl), the amount of the serum insulin (mg/dl), the body weight (g) and the change of the body weight are measured.

[5] = test system: U46619-induced platelet aggregation; assay: Antiplatelet aggregation activity (U46619-induced, turbidity, Lumi-aggregometer); assay type: cell-based; details: 20 μM, rabbit platelets, n=8
Protocol: 4. […] After centrifuging at […] for 10 mins, the supernatant is platelet-rich plasma (PRP). The platelet suspension is obtained from EDTA-anticoagulated PRP, and the platelet granules are finally suspended in the Tyrode's solution. […] The turbidity is measured at 37° C. by Lumi-aggregometer connected with two dual channel recorders as the aggregation.

[6] = test system: monocrotaline (MCT)-treated rats; assay: Pulmonary artery blood pressure in monocrotaline (MCT)-treated rats; assay type: in vivo, male Wistar rats; details: 2.5 mg/kg/day p.o.
Protocol: 5. the monocrotaline (MCT)-treated rats show the […] pulmonary aterial hypertension
Pulmonary aterial hypertension in MCT-treated rats is caused on day 21 after the intraperitoneal injection. Orally administered KMUP-1 HCl salt (2.5 mg/kg), simvastatin (2.5 mg/kg), KMUP-1-nicotinic acid complex (2.5 mg/kg), KMUP-1-Citric acid complex (2.5 mg/kg), KMUP-1-Simvastatinic acid complex (2.5 mg/kg) and KMUP-1-γ-Polyglutamic acid complex (2.5 mg/kg), or the inhalated KMUP-1-PGI2 (0.1 mM) every day may inhibit the male Wistar rats treated with MCT, which show the effect of decreasing the pulmonary artery blood pressure (PABP).

TGF-β = assay: Bleomycin-induced lung fibrosis in mice, TGF-β expression by EIA; assay type: in vivo; details: 2.5 mg/kg orally, bleomycin 60 mg/kg
Protocol: 6. KMUP-1 salts inhibit the lung fibrosis in mice induced by bleomycin (BM) mediated via transforming growth factor beta (TGF-β) expression in lung The increased amount of the synthetic collagen and the generation of the macrophage in alveolus may facilitate the formulation of TGF-β, and the expression of TGF-β is looked as a biomarker of the lung fibrosis. […] The state of the TGF-β expression in the irrigation solution is measured by the enzyme immunoassay (EIA).

[7] = test system: testosterone-induced mice; assay: Prostate hypertrophy (BPH) in testosterone-induced mice; assay type: in vivo; details: 2.5 mg/kg, testosterone 3 mg/kg/day for 4 weeks, day 28, n=6
Protocol: The testosterone (TS, 3 mg/kg/day) is administered for 4 weeks for inducing BPH in mice, which combines with KMUP-1 HCl salt (2.5 mg/kg), KMUP-1-Citric acid (2.5 mg/kg) and KMUP-1-Nicotinic acid (2.5 mg/kg), and the ratio of hypertrophy (g)/body weight (g) is measured at day 28 (n=6).

H1N1 virus = assay type: cell-based; details: MDCK culture infected with H1N1 virus
L1210 leukemia cell line = assay: Cytotoxicity to cancer cells, MTT assay; assay type: cell-based; details: 3 days, n=6
Protocol: The methotrexate (MTX) is served as the positive control group. Briefly, the cancer cells (5000-10000 cells/ml) is added together with the compounds to be tested into each well of 96-well plate. After culturing for 3 days, the attached cells are cultured in MTT (0.5 mg/ml) for one hour, followed by dissolving the formazan crystal with dimethyl sulfoxide (DMSO). The absorption at 550 nm wave length is measured by the enzyme linked immunosorbent assay (ELISA) reader. IC50 is the concentration of the tested compound for inhibiting 50% cell growth under the experimental conditions.

RAW 264.7 cells = assay: Inhibition of RANKL-induced osteoclast differentiation (TRAP staining); assay type: cell-based; details: 5 μM, RANKL 10 μg/ml, 5 days, n=5

Cl.Cn1c(=O)c2c(ncn2CCN2CCN(c3ccccc3Cl)CC2)n(C)c1=O [KMUP-1 HCl salt, 7-[2-[4-(2-chlorobenzene)piperazinyl]ethyl]-1,3-dimethyl xanthine HCl]
HDL-C (C57BL/6J mice [1]; 2.5 mg/kg orally): 103.55 ± 4.2 mg/dL | LDL-C (C57BL/6J mice [1]; 2.5 mg/kg orally): 14.17 ± 1.4 mg/dL | TG (C57BL/6J mice [1]; 2.5 mg/kg orally): 74.5 ± 5.1 mg/dL | tot.-C (C57BL/6J mice [1]; 2.5 mg/kg orally): 133 ± 5.1 mg/dL | HDL-C (C57BL/6J mice [1]; 5 mg/kg orally): 118.32 ± 5.7 mg/dL | LDL-C (C57BL/6J mice [1]; 5 mg/kg orally): 14.2 ± 2.2 mg/dL | TG (C57BL/6J mice [1]; 5 mg/kg orally): 72.67 ± 4.7 mg/dL | tot.-C (C57BL/6J mice [1]; 5 mg/kg orally): 125.5 ± 9.8 mg/dL | The amount of serum glucose (C57BL/6J mice [2]): 120.4 ± 4.2 mg/dL | The amount of the serum glucose ([3]; 0.5 mg/kg orally): 215.4 ± 19.6 mg/dL | The amount of the serum glucose ([3]; 1.5 mg/kg orally): 215.4 ± 23.8 mg/dL | The amount of the serum glucose ([3]; 2.5 mg/kg orally): 210.4 ± 15.7 mg/dL | The amount of the serum glucose ([3]; 5 mg/kg orally): 200.2 ± 14.2 mg/dL | The change of the fasting blood glucose after administration ([4]; 1 mg/kg, 1 hr): 3.7 ± 0.6 mg/dL | The change of the insulin after administration ([4]; 1 mg/kg, 1 hr): 10.1 ± 1.8 U/mL | The change of the fasting blood glucose after administration ([4]; 1 mg/kg, 2 hr): 2.3 ± 0.7 mg/dL | The change of the insulin after administration ([4]; 1 mg/kg, 2 hr): 16.4 ± 2.2 U/mL | The change of the insulin after administration ([4]; 1 mg/kg, 3 hr): 12.6 ± 2.4 U/mL | The change of the insulin after administration ([4]; 1 mg/kg, 4 hr): 6.7 ± 2.4 U/mL | The change of the fasting blood glucose after administration ([4]; 1 mg/kg, 6 hr): 0.1 ± 0.5 mg/dL | The change of the insulin after administration ([4]; 1 mg/kg, 6 hr): 1.8 ± 0.7 U/mL | The change of the fasting blood glucose after administration ([4]; 2 mg/kg, 1 hr): 4.3 ± 0.4 mg/dL | The change of the insulin after administration ([4]; 2 mg/kg, 1 hr): 26.4 ± 1.3 U/mL | The change of the fasting blood glucose after administration ([4]; 2 mg/kg, 2 hr): 2.5 ± 0.2 mg/dL | The change of the insulin after administration ([4]; 2 mg/kg, 2 hr): 30.6 ± 4.6 U/mL | The change of the insulin after administration ([4]; 2 mg/kg, 3 hr): 13.8 ± 3.6 U/mL | The change of the insulin after administration ([4]; 2 mg/kg, 4 hr): 9.5 ± 1.7 U/mL | The change of the fasting blood glucose after administration ([4]; 2 mg/kg, 6 hr): 0.3 ± 0.7 mg/dL | The change of the insulin after administration ([4]; 2 mg/kg, 6 hr): 4.6 ± 0.8 U/mL | The change of the fasting blood glucose after administration ([4]; 3 mg/kg, 1 hr): 5.2 ± 0.9 mg/dL | The change of the insulin after administration ([4]; 3 mg/kg, 1 hr): 38.2 ± 3.8 U/mL | The change of the fasting blood glucose after administration ([4]; 3 mg/kg, 2 hr): 1.7 ± 0.1 mg/dL | The change of the insulin after administration ([4]; 3 mg/kg, 2 hr): 32.6 ± 6.4 U/mL | The change of the insulin after administration ([4]; 3 mg/kg, 3 hr): 21.4 ± 2.6 U/mL | The change of the insulin after administration ([4]; 3 mg/kg, 4 hr): 18.4 ± 2.4 U/mL | The change of the fasting blood glucose after administration ([4]; 3 mg/kg, 6 hr): -0.1 ± 0.3 mg/dL | The change of the insulin after administration ([4]; 3 mg/kg, 6 hr): 7.4 ± 3.6 U/mL | The change of the fasting blood glucose after administration ([4]; 4 mg/kg, 1 hr): 5.7 ± 0.8 mg/dL | The change of the insulin after administration ([4]; 4 mg/kg, 1 hr): 37.4 ± 3.6 U/mL | The change of the fasting blood glucose after administration ([4]; 4 mg/kg, 2 hr): 1.5 ± 0.2 mg/dL | The change of the insulin after administration ([4]; 4 mg/kg, 2 hr): 47.3 ± 2.3 U/mL | The change of the insulin after administration ([4]; 4 mg/kg, 3 hr): 27.8 ± 2.8 U/mL | The change of the insulin after administration ([4]; 4 mg/kg, 4 hr): 14.8 ± 3.7 U/mL | The change of the fasting blood glucose after administration ([4]; 4 mg/kg, 6 hr): -0.3 ± 0.1 mg/dL | The change of the insulin after administration ([4]; 4 mg/kg, 6 hr): 2.8 ± 0.5 U/mL | The ratio of the antiplatelet aggregation [5]: 89 ± 3.4 % | PABP [6]: 13 ± 1.7 mmHg | Changing % of the lung TGF-β (TGF-β): 52 ± 5.2 % | hypertrophy (g)/body weight (g) [7]: 0.21 ± 0.04 | growth of the virus (in words) (H1N1 virus; in glucose solution): can inhibit the growth of the virus | IC50 (H1N1 virus; n=6): 5.2 µg/mL | IC50 (L1210 leukemia cell line): 0.026 µM | TRAP-Positive Cells (RAW 264.7 cells): 80 ± 6

Cn1c(=O)c2c(ncn2CCN2CCN(c3ccccc3Cl)CC2)n(C)c1=O.O=C(O)CC(O)(CC(=O)O)C(=O)O [KMUP-1-Citric acid, KMUP-1-Citric acid salt]
HDL-C (C57BL/6J mice [1]; 2.5 mg/kg orally): 108.4 ± 1.3 mg/dL | LDL-C (C57BL/6J mice [1]; 2.5 mg/kg orally): 16.4 ± 1.7 mg/dL | TG (C57BL/6J mice [1]; 2.5 mg/kg orally): 83.2 ± 5.3 mg/dL | tot.-C (C57BL/6J mice [1]; 2.5 mg/kg orally): 129.7 ± 1.6 mg/dL | The ratio of the antiplatelet aggregation [5]: 78 ± 2.7 % | PABP [6]: 16 ± 1.8 mmHg | hypertrophy (g)/body weight (g) [7]: 0.23 ± 0.05

CN(Cc1cnc2nc(N)nc(N)c2n1)c1ccc(C(=O)N[C@@H](CCC(=O)O)C(=O)O)cc1 [MTX, methotrexate, reference compound]
IC50 (L1210 leukemia cell line; Mus musculus, 72 h): 0.012 µM

Cn1c(=O)c2c(ncn2CCN2CCN(c3ccccc3Cl)CC2)n(C)c1=O.O=C(O)c1cccnc1 [KMUP-1-Nicotinic acid, KMUP-1-Nicotinic acid salt]
HDL-C (C57BL/6J mice [1]; 5 mg/kg orally): 97.98 ± 3.4 mg/dL | LDL-C (C57BL/6J mice [1]; 5 mg/kg orally): 13.8 ± 1.2 mg/dL | TG (C57BL/6J mice [1]; 5 mg/kg orally): 80.75 ± 7.9 mg/dL | tot.-C (C57BL/6J mice [1]; 5 mg/kg orally): 130 ± 4.1 mg/dL | The amount of serum glucose (C57BL/6J mice [2]): 123.5 ± 2.5 mg/dL | PABP [6]: 12 ± 2.6 mmHg | Changing % of the lung TGF-β (TGF-β): 42 ± 3.8 % | hypertrophy (g)/body weight (g) [7]: 0.19 ± 0.07

CN(Cc1cnc2nc(N)nc(N)c2n1)c1ccc(C(=O)N[C@@H](CCC(=O)O)C(=O)O)cc1.Cn1c(=O)c2c(ncn2CCN2CCN(c3ccccc3Cl)CC2)n(C)c1=O [KMUP-1-MTX, KMUP-1-Methotrexate (MTX) Complex]
IC50 (L1210 leukemia cell line): 0.02 µM

COc1ccc2c(c1)c(CC(=O)O)c(C)n2C(=O)c1ccc(Cl)cc1 [Indomethacin, indomethacin, reference compound]
The ratio of the antiplatelet aggregation [5]: 87 ± 8.3 %
